Data on 3 compounds can be found in patent US20230034248A1, “PLANT STOMATA OPENING PROMOTING AGENT” (OAT Agrio Co., Ltd., priority 2019, published 2023).

Assay [1] has as its system lower epidermis of Commelina benghalensis L. The assay is described as follows: Abscisic acid-induced stomatal closure inhibitory activity, first evaluation (stomatal aperture of peeled lower epidermis). In kind it is cell-based. Conditions: for Stomatal Aperture: 2 hours. The protocol:
(§1) The lower epidermis of Commelina benghalensis L. was peeled off, immersed in the stomatal aperture measurement solution, and allowed to stand still in a dark place for 2 hours. Then, the lower epidermis of Commelina benghalensis L. was immersed in test solutions prepared by adding steviol to the stomatal aperture measurement solution to give 100 or 300 μM (final concentration) or in the stomatal aperture measurement solution without the addition of steviol (Comparative Example 1), and allowed to stand still in a bright place for 3 hours. The lower epidermis of Commelina benghalensis L. after immersion in the test solutions was photographed with a digital camera (LCD (Liquid Crystal Display), manufactured by KENIS LIMITED) attached to a microscope (Olympus BH2; objective lens SPlan 10 [manufactured by Olympus Corporation] magnification 200×). The stomatal aperture was measured with measurement software (digital microanalyzer, manufactured by Nippon Polaroid Corporation; Polaroid is the registered trademark). The stomatal aperture was measured for 80 or more stomata, for each addition concentration. The stomatal aperture obtained at each addition concentration was compared with the stomatal aperture obtained without the addition of steviol (0 μM, Comparative Example 1), and statistical analysis was performed by student's t-test.
The lower epidermis of Commelina benghalensis L. was peeled off, immersed in the stomatal aperture measurement solution, and allowed to stand still in a bright place for 3 hours. Then, the lower epidermis of Commelina benghalensis L. was immersed in test solutions prepared by adding 10 μM (final concentration) of abscisic acid and 400 or 600 μM of steviol to the stomatal aperture measurement solution or in the stomatal aperture measurement solution without the addition of steviol (Comparative Example 8) prepared by adding 10 μM (final concentration) of abscisic acid alone, and allowed to stand still for 2 hours. Then, the stomatal aperture was measured as in Example 1.
(§2) The lower epidermis of Commelina benghalensis L. was peeled off, immersed in the stomatal aperture measurement solution, and allowed to stand still in a bright place for 3 hours. Then, the lower epidermis of Commelina benghalensis L. was immersed in test solutions prepared by adding 10 μM (final concentration) of abscisic acid and 300 or 800 μM (final concentration) of stevioside to the stomatal aperture measurement solution or in the stomatal aperture measurement solution without the addition of stevioside (Comparative Example 9) prepared by adding 10 μm (final concentration) of abscisic acid alone, and allowed to stand still for 2 hours. Then, the stomatal aperture was measured as in Example 1.
as §2, with “100, 300,” for “300”, “500” for “800”, “rebaudioside A” for “stevioside”, “10)” for “9)”
The lower epidermis of Commelina benghalensis L. was peeled off, immersed in the stomatal aperture measurement solution, and allowed to stand still in a bright place for 3 hours. […]

Assay [2] shares this test system. In words: Stomatal opening promoting activity in a bright place (stomatal aperture of peeled lower epidermis). In kind it is cell-based. Conditions: for Stomatal Aperture: bright place 3 hours, mean±standard deviation. The protocol: as §1
The lower epidermis of Commelina benghalensis L. that had been peeled off was immersed in the stomatal aperture measurement solution, and allowed to stand still in a dark place for 2 hours. Then, the lower epidermis of Commelina benghalensis L. was immersed in test solutions prepared by adding FARM A to the stomatal aperture measurement solution to give a 500- or 250-fold dilution (final concentration) or in the stomatal aperture measurement solution without the addition of FARM A (Comparative Example 2), and allowed to stand still in a bright place for 3 hours. Then, the stomatal aperture was measured as in Example 1.

[3] abbreviates: addition concentration 300 μM with 10 μM abscisic acid.

As to `C=C1C[C@@]23CC[C@H]4[C@@](C)(CCC[C@@]4(C)C(=O)O[C@@H]4O[C@H](CO)[C@@H](O)[C@H](O)[C@H]4O)[C@@H]2CC[C@]1(O[C@@H]1O[C@H](CO)[C@@H](O)[C@H](O[C@@H]2O[C@H](CO)[C@@H](O)[C@H](O)[C@H]2O)[C@H]1O[C@@H]1O[C@H](CO)[C@@H](O)[C@H](O)[C@H]1O)C3` [rebaudioside A], the “stomatal aperture as compared to without the addition (student's t-test)” value in assay [1] (100, 300, or 500 μM with 10 μM abscisic acid) is “statistically significant increase in the stomatal aperture”. Further, the “Stomatal Aperture” value came to 7.74 ± 2.90 μm in assay [1] (addition concentration 100 μM with 10 μM abscisic acid), 9.85 ± 2.57 μm in assay [1] (setting [3]) and 9.32 ± 2.69 μm in assay [1] (addition concentration 500 μM with 10 μM abscisic acid).

In the case of `C=C1C[C@@]23CC[C@H]4[C@@](C)(CCC[C@@]4(C)C(=O)O)[C@@H]2CC[C@]1(O)C3` [steviol], the “stomatal aperture as compared to without the addition (student's t-test)” value in assay [2] (300 μM, bright place) is recorded as “statistically significant increase in the stomatal aperture”; in assay [1] (400 or 600 μM with 10 μM abscisic acid) it was “statistically significant increase in the stomatal aperture”. Also, the “stomatal aperture as compared to without the addition” value in assay [2] (100 or 300 μM, bright place) is listed as “an increase in the stomatal aperture”. Besides, the “Stomatal Aperture” value was 15.16 ± 0.33 μm in assay [2] (addition concentration 100 μM), 16.95 ± 0.37 μm in assay [2] (addition concentration 300 μM), 10.65 ± 0.48 μm in assay [1] (addition concentration 400 μM with 10 μM abscisic acid) and 13.27 ± 0.49 μm in assay [1] (addition concentration 600 μM with 10 μM abscisic acid).

`C=C1C[C@@]23CC[C@H]4[C@@](C)(CCC[C@@]4(C)C(=O)O[C@@H]4O[C@H](CO)[C@@H](O)[C@H](O)[C@H]4O)[C@@H]2CC[C@]1(O[C@@H]1O[C@H](CO)[C@@H](O)[C@H](O)[C@H]1O[C@@H]1O[C@H](CO)[C@@H](O)[C@H](O)[C@H]1O)C3` [stevioside]: the “stomatal aperture as compared to without the addition (student's t-test)” value in assay [1] (300 or 800 μM with 10 μM abscisic acid) was “statistically significant increase in the stomatal aperture”. The results for the “Stomatal Aperture” value in assay [1] (setting [3]) and in assay [1] (addition concentration 800 μM with 10 μM abscisic acid) were 7.03 ± 0.39 μm and 6.49 ± 0.32 μm, respectively.
